PubChem BioAssay (NCI)
“And” between values parts separate entries of the source, which are not always exact repeats. Identical values can stand only once.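 Dose response: 5 concentrations. Exposure: 48 h. Format: 96-well plates. Endpoint: linear interpolation; highest concentration if not reached. GI50 marks 50% less growth. At the TGI there is no net growth.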

How the values were obtained:
Assay in all cases: NCI anticancer screen, dose series, 48 h
[1] = system: HT29 colon
[2] = system: SNB-19 CNS
[3] = system: EKVX NSCLC
[4] = system: SW-620 colon
[5] = system: UACC-62 melanoma
[6] = system: MDA-MB-435
[7] = system: K-562 leukemia
[8] = system: HCC-2998 colon
[9] = system: T-47D breast
[10] = system: COLO 205 colon

SMILES: O=C(NNC(=O)c1ccncc1)C(=O)Nc1cc(Cl)c(Cl)cc1Cl
- TGI [1]: > 100 µM
- TGI [2]: > 100 µM
- TGI [3]: > 100 µM
- TGI [4]: > 100 µM
- TGI [5]: > 100 µM
- TGI [6]: > 100 µM
- TGI [7]: > 100 µM
- TGI [8]: 57.8 µM
- TGI [9]: > 100 µM

SMILES: COc1ccc(-c2nc(-c3cnccn3)n(C/C=C/c3ccccc3)n2)cc1
- TGI [10]: > 100 µM
- TGI [1]: > 100 µM
- TGI [2]: > 100 µM
- TGI [4]: > 100 µM
- TGI [5]: > 100 µM
- TGI [6]: > 100 µM
- TGI [7]: > 100 µM
- TGI [8]: > 100 µM
- TGI [9]: > 100 µM

SMILES: C/C(N=NS(=O)(=O)c1c(C)cc(C)cc1C)=C1\C=CC=CN1O
- TGI [1]: > 100 µM
- TGI [2]: > 100 µM
- TGI [3]: > 100 µM
- TGI [4]: > 100 µM
- TGI [5]: > 100 µM
- TGI [7]: > 100 µM
- TGI [8]: > 100 µM

SMILES: CC1(C)CC(=O)C2=C(C1)NC(=S)C(C#N)C2c1ccccc1 (stereo not given)
- TGI [10]: > 100 µM
- TGI [1]: > 100 µM
- TGI [2]: > 100 µM
- TGI [3]: > 100 µM
- TGI [4]: > 100 µM
- TGI [5]: > 100 µM
- TGI [6]: > 100 µM
- TGI [7]: > 100 µM
- TGI [8]: > 100 µM

SMILES: O=c1[nH]c(=S)[nH]c2c1CCCN2
- TGI [10]: > 100 µM
- TGI [1]: > 100 µM
- TGI [2]: > 100 µM
- TGI [3]: > 100 µM
- TGI [4]: > 100 µM
- TGI [5]: > 100 µM

SMILES: COc1cccc(C2C(C#N)=C(N)Oc3cc(OCCCCCC[P+](c4ccccc4)(c4ccccc4)c4ccccc4)ccc32)c1 (stereo not given)
- GI50 [1]: 613 nM
- TGI [1]: 3.67 µM
- GI50 [2]: 366 nM
- TGI [2]: 1.44 µM
- GI50 [6]: 357 nM
- TGI [6]: 1.31 µM
- GI50 [7]: 334 nM
- TGI [7]: > 23.7 µM
- GI50 [8]: 493 nM
- TGI [8]: 1.68 µM
- GI50 [9]: 354 nM
- TGI [9]: 1.95 µM

SMILES: CCC1OC2(C)CC(C#N)(C#N)C1(C#N)C(=N)O2 (stereo not given)
- TGI [10]: > 100 µM
- TGI [2]: > 100 µM
- TGI [3]: > 100 µM
- TGI [4]: > 100 µM
- TGI [5]: > 100 µM
- TGI [6]: > 100 µM
- TGI [7]: > 100 µM
- TGI [9]: > 100 µM

SMILES: O=Cn1c2ccccc2c2ccccc21
- TGI [10]: > 100 µM
- TGI [2]: > 100 µM
- TGI [3]: > 100 µM
- TGI [4]: > 100 µM
- TGI [5]: > 100 µM
- TGI [7]: > 100 µM
- TGI [8]: > 100 µM

SMILES: C/C(=N/NC(N)=S)C(CN1CCOCC1)C(C1=C(O)c2ccccc2OC1)c1ccccc1 (stereo not given)
- TGI [10]: > 100 µM
- TGI [1]: > 100 µM
- TGI [2]: > 100 µM
- TGI [3]: > 100 µM
- TGI [4]: > 100 µM
- TGI [5]: > 100 µM
- TGI [7]: > 100 µM
- TGI [8]: > 100 µM

SMILES: CC(C)=CC(=O)OC1C2C(C)=CC(=O)C(O)C2(C)C2C3(O)OCC24C(CC(=O)OC14)C(C)C3O (stereo not given)
- GI50 [10]: 117 nM
- TGI [10]: 0.359 µM and 1.11 µM and 0.42 µM
- GI50 [1]: 30.2 nM
- TGI [1]: 0.0449 µM and 0.0146 µM and 0.137 µM
- GI50 [2]: 27.3 nM
- TGI [2]: 0.0303 µM and 0.0462 µM
- GI50 [4]: 10.8 nM and 26.5 nM
- GI50 [5]: 20.4 nM
- TGI [5]: 0.0313 µM and 0.0404 µM
- TGI [6]: 0.0103 µM
- GI50 [7]: 20 nM
- TGI [7]: 0.0775 µM and 0.237 µM
- GI50 [8]: 22.9 nM
- TGI [8]: 0.0532 µM and 0.0278 µM and 0.0513 µM
- TGI [9]: 0.0108 µM

SMILES: NCCCNCCSP(=O)(O)O
- TGI [10]: > 657 µM
- TGI [1]: > 750 µM
- TGI [2]: > 750 µM
- TGI [3]: > 750 µM
- TGI [4]: > 750 µM
- TGI [5]: > 750 µM
- TGI [7]: > 750 µM
- TGI [8]: > 750 µM

SMILES: COc1c(NC(C)=O)c2ccccc2c2ccccc12
- TGI [1]: > 100 µM
- TGI [2]: > 100 µM
- TGI [3]: > 100 µM
- TGI [4]: > 100 µM
- TGI [5]: > 100 µM
- TGI [6]: > 100 µM
- TGI [7]: > 100 µM
- TGI [9]: > 100 µM

SMILES: Oc1c(NCn2nc(CCCCCCCCc3nn(CNc4ccc5ccccc5c4O)c(=S)o3)oc2=S)ccc2ccccc12
- TGI [10]: > 100 µM
- TGI [1]: > 100 µM
- TGI [2]: > 100 µM
- TGI [3]: > 100 µM
- TGI [4]: > 100 µM
- TGI [5]: > 100 µM
- TGI [6]: 43.2 µM
- TGI [7]: > 100 µM
- TGI [8]: > 100 µM

SMILES: COC(=O)CCC(NC(=S)N/N=C(\C)c1cccs1)C(=O)OC (stereo not given)
- TGI [10]: > 100 µM
- TGI [1]: > 100 µM
- TGI [2]: > 100 µM
- TGI [3]: > 100 µM
- TGI [4]: > 100 µM
- TGI [5]: > 100 µM
- TGI [7]: > 100 µM
- TGI [8]: > 100 µM

SMILES: C=CCN1C(=O)C[C@H](Cc2ccccc2)NC(=O)C[C@H](Cc2ccccc2)N(CC=C)C(=O)C[C@H](Cc2ccccc2)NC(=O)C[C@@H]1Cc1ccccc1
- TGI [10]: 5.87 µM
- TGI [1]: > 100 µM
- TGI [2]: > 100 µM
- TGI [3]: 9.25 µM
- TGI [4]: > 100 µM
- TGI [5]: > 100 µM
- TGI [6]: > 100 µM
- TGI [7]: > 100 µM
- TGI [9]: > 100 µM

SMILES: C=CC(C)(C)/C(=C\CO[Si](C(C)C)(C(C)C)C(C)C)C(=O)N(C)c1ccccc1I
- TGI [10]: 31.5 µM
- TGI [1]: 27.1 µM
- TGI [2]: 28.1 µM
- TGI [3]: 32.1 µM
- TGI [4]: 26.1 µM
- TGI [5]: 28.7 µM
- TGI [6]: 73.9 µM
- TGI [8]: 26 µM
- TGI [9]: 25.3 µM

SMILES: Nc1ccnc2c1ncn2[C@H]1C[C@H](O)[C@@H](CO)O1
- TGI [10]: > 100 µM
- TGI [1]: > 100 µM
- TGI [2]: > 100 µM
- TGI [3]: > 100 µM
- TGI [4]: > 100 µM
- TGI [5]: > 100 µM
- TGI [6]: > 100 µM
- TGI [8]: > 100 µM
- TGI [9]: > 100 µM
